Assay results published in patent US20070202574A1, “Novel Saccharothrix Strain an Antibiotics Derived Therefrom, i.e. Mutactimycins and Aldgamycins” (Institut National Polytechnique de Toulouse, priority 2004, published 2007).
Values after ≈ are worked out from the molar mass of the structure shown. Values joined by “and” are separate entries in the source; they are usually repeats but may differ in a detail not shown here. Identical values can stand only once. “Also recorded” adds a separate entry of the source.

Legend:
[1] = system: Micrococcus luteus ATCC 9314; experiment: MIC, antimicrobial spectrum; assay type: cell-based; conditions: for activity in words: M. luteus; for MIC: ATCC9314, Micrococcus luteus ATCC 9314
[2] = system: Staphylococcus aureus CIP 53156; experiment: MIC, antimicrobial spectrum; assay type: cell-based; conditions: for activity in words: Staphylococcus aureus CIP 53156; for MIC: Staphylococcus aureus, CIP53156, Staphylococcus aureus CIP 53156
[3] = system: Mycobacterium smegmatis ATCC 607; experiment: MIC, antimicrobial spectrum; assay type: cell-based; conditions: for activity in words: Mycobacterium smegmatis; for MIC: Mycolicibacterium smegmatis, ATCC607, Mycobacterium smegmatis ATCC 607
[4] = Relative solubility in solvents; assay type: physicochemical; conditions: value = list of solvents; for Relative solubility: Highly soluble (solvents) / Relative solubility: Insoluble (solvents) / Relative solubility: Medium soluble (solvents): wrapped cells given line by line
Text: The antibiotics P11, PR, F and G are bright red in colour at neutral pH, yellow at acid pH and violet-blue at basic pH. P11 is the majority antibiotic and PR, the minority antibiotic. These antibiotics were the subject of the following […] analyses: UV visible light, infrared, mass spectrometry and NMR of the proton and carbon 13 (with studies of the correlations). Supplementary tests, such a solubility, determination of Rf by CCM and elemental analysis (the latter only for P11) were also carried out.

Bacillus subtilis = experiment: HPLC fractions tested against Bacillus subtilis (gelose diffusion test); assay type: cell-based; conditions: concentrated HPLC peak fractions
Description: A sample of the strain SA 103 taken from an immature inclined culture was inoculated into an Erlenmeyer flask containing 50 ml of the sterile culture medium containing 0.4t glucose, a 1% malt extract and a 0.4% yeast extract (adjusted to pH 7.2 before sterilisation) and placed in culture on a rotary stirrer (250 rpm) at 30° C. for two days. For producing antibiotics, 3 ml of culture medium were transferred to 500 ml Erlenmeyer flasks, each containing 100 ml of the above medium, and placed in culture for 10 days using the same conditions. The production of total antibacterial activity was carried out on a nutrient gelose, by a gelose diffusion test against Bacillus sutilis ATCC 6633. Inhibition of growth was examined after 24 hours of incubation at 30° C. Antimicrobial activity was estimated by measuring the diameter of the inhibition zone. The dry weight of the mycelium was determined in Eppendorf tubes filled with 1 ml of homogenized culture medium and dried at 105° C. for 24 hours (Pfefferle et al. J. Biotech. 80:135-142, 2000).
The butanolic extract, of a red colour, was concentrated on the Rotavapor. An aliquot of this extract was first sent through a Sephadex LH 20 column using methanol in double distilled water (80%) as the mobile phase. However, the separation of the antibiotics (visualisation by the naked eye and by the antibiography) was not conclusive. This step was therefore eliminated and the butanolic extract was purified directly by a reverse phase HPLC using a C18 column and isocratic conditions (63% methanol in water), a flow rate of 1.5 ml/min and detection at 220 nm. The fractions corresponding to all the peaks obtained on the profile were collected separately, concentrated and tested against Bacillus subtilis. […] These antibiotics were purified by HPLC after 3 to 4 reinjections in the same conditions as previously.

[5] = system: Bacillus subtilis ATCC 6633; experiment: MIC, antimicrobial spectrum; assay type: cell-based; conditions: for MIC: ATCC6633, Bacillus subtilis ATCC 6633
[6] = system: Klebsiella pneumoniae CIP 82.91; experiment: MIC, antimicrobial spectrum; assay type: cell-based; conditions: for activity in words: K. pneumoniae; for MIC: Klebsiella pneumoniae, CIP82, Klebsiella pneumoniae CIP 82.91
[7] = system: Pseudomonas syringae No 1882; experiment: MIC, antimicrobial spectrum; assay type: cell-based; conditions: NO1882
[8] = system: Escherichia coli ATCC 10536; experiment: MIC, antimicrobial spectrum; assay type: cell-based; conditions: ATCC10536
[9] = system: Saccharomyces cerevisiae ATCC 4226; experiment: MIC, antimicrobial spectrum; assay type: cell-based; conditions: ATCC4226
[10] = system: Mucor ramannianus NRRL 1829; experiment: MIC, antimicrobial spectrum; assay type: cell-based; conditions: Umbelopsis ramanniana, NRRL1829
[11] = system: Staphylococcus aureus CIP 7625; experiment: MIC, antimicrobial spectrum; assay type: cell-based; conditions: CIP7625
[12] = system: Agrobacterium tumefaciens No 2410; experiment: MIC, antimicrobial spectrum; assay type: cell-based; conditions: NO2410
[13] = system: Listeria monocytogenes CIP 82110; experiment: MIC, antimicrobial spectrum; assay type: cell-based; conditions: CIP82110, Listeria monocytogenes CIP 82110

Row | SMILES | Relative solubility: Insoluble (solvents) [4] | Relative solubility: Medium soluble (solvents) [4] | MIC [1] [µg/mL] | MIC [7] [µg/mL] | MIC [8] [µg/mL] | MIC [9] [µg/mL] | MIC [10] [µg/mL] | MIC [11] [µg/mL] | MIC [12] [µg/mL] | MIC [2] [µg/mL] | MIC [3] [µg/mL] | MIC [13] [µg/mL] | MIC [5] [µg/mL] | MIC [6] [µg/mL] | activity in words [1] | activity in words [2] | activity in words [3] | soluble in (solvents) [4] | Relative solubility: Highly soluble (solvents) [4] | activity of the collected HPLC fraction against Bacillus subtilis (Bacillus subtilis) | other results
1 | COc1cccc2c1C(=O)c1c(O)c3c(c(O)c1C2=O)CC(C)(O)CC3OC1OC(C)C(O)C(O)C1O (stereo not drawn) [F, mutactimycin F] | n-hexane and toluene | MeOH, EtOH | – | – | – | – | – | – | – | – | – | – | – | – | active | active | active | water, n-butanol, 1-propanol and ethanol | n-BuOH, 1-PrOH | active | Relative solubility: Insoluble (solvents) ([4]; listed as Mutactimycin F): H2O, CH2Cl2, CHCl3; also recorded: EtOAc, Me2CO, n-hexane,; also recorded: toluene; activity in words [5]: active; activity in words [6]: active
2 | CC1OC(Oc2cccc3c2C(=O)c2c(O)c4c(c(O)c2C3=O)CC(C)(O)CC4O)C(O)C(O)C1O (stereo not drawn) [G, mutactimycin G] | chloroform, dichloromethane, ethyl acetate, n-hexane and toluene; also recorded: H2O, CH2Cl2, CHCl3, EtOAc,; also recorded: Me2CO, n-hexane, toluene | MeOH, EtOH | – | – | – | – | – | – | – | – | – | – | – | – | active | active | active | water, n-butanol, 1-propanol, methanol and ethanol | n-BuOH, l-PrOH | active | activity in words [5]: active; activity in words [6]: active
3 | COC1C(O)C(C)OC(OC2CC(C)(O)Cc3c(O)c4c(c(O)c32)C(=O)c2c(OC3OC(C)C(O)C(O)C3O)cccc2C4=O)C1O (stereo not drawn) [PR, mutactimycin PR] | chloroform, dichloromethane, ethyl acetate, n-hexane and toluene | – | 50 (≈ 75.5 µM) | > 100 | > 100 | > 100 | > 100 | > 100 | > 100 | 50 (≈ 75.5 µM) | > 100 | > 100 | 75 (≈ 113 µM) | 40 (≈ 60.4 µM) | active | active | active | – | water, methanol and ethanol | active | Relative solubility: Highly soluble (solvents) ([4]; listed as mutactimycin PR): MeOH, EtOH, H2O; Relative solubility: Insoluble (solvents) ([4]; listed as mutactimycin PR): CH2Cl2, CHCl3,; also recorded: EtOAc, n-hexane,; also recorded: toluene; Relative solubility: Medium soluble (solvents) ([4]; listed as mutactimycin PR): Me2CO, n-BuOH, 1-; also recorded: PrOH, 2-PrOH; activity in words [5]: active; activity in words [6]: active

Further lines, with some results ahead:

Row | Relative solubility: Insoluble (solvents) [4] | Relative solubility: Medium soluble (solvents) [4] | MIC [1] [µg/mL] | MIC [7] [µg/mL] | MIC [8] [µg/mL] | MIC [9] [µg/mL] | MIC [10] [µg/mL] | MIC [11] [µg/mL] | MIC [12] [µg/mL] | MIC [2] [µg/mL] | MIC [3] [µg/mL] | MIC [13] [µg/mL] | MIC [5] [µg/mL] | MIC [6] [µg/mL] | SMILES | activity in words [1] | activity in words [2] | activity in words [3] | soluble in (solvents) [4] | Relative solubility: Highly soluble (solvents) [4] | activity of the collected HPLC fraction against Bacillus subtilis (Bacillus subtilis) | other results
4 | – | – | 1 (≈ 1.4 µM) | > 100 | > 100 | > 100 | > 100 | > 100 | > 100 | – | – | – | – | – | COC1C(OCC2C(C)OC(=O)/C=C/C(C)C(OC3OC(C)CC(O)(C(C)O)C3O)C(C)CC(C)C(=O)/C=C/C3OC32)OC(C)C(O)C1OC (stereo not drawn) [P8, aldgamycin H] | – | – | – | – | methanol, n-butanol, ethanol, 1 and 2-propnol, ethyl acetate, acetone, chloroform and dichloromethane; also recorded: MeOH, EtOR, Me2CO,; also recorded: n-BuOH, 1-PrOH, 2-; also recorded: PrOH, CH2Cl2,; also recorded: EtOAc, CHCl3 | active | –
5 | – | – | 1 (≈ 1.35 µM) | – | – | – | – | – | – | 1 (≈ 1.35 µM) | 50 (≈ 67.5 µM) | 30 (≈ 40.5 µM) | 1 (≈ 1.35 µM) | 0.1 (≈ 0.135 µM) | COC1C(OCC2C(C)OC(=O)/C=C/C(C)C(OC3OC(C)CC4(OC(=O)OC4C)C3O)C(C)CC(C)C(=O)/C=C/C3OC32)OC(C)C(O)C1OC (stereo not drawn) [P10a, aldgamycin G] | – | – | – | n-butanol, 1 and 2-propanol, methanol, dichloromethane, ethyl acetate, chloroform, acetone and ethanol | methanol, n-butanol, ethanol, 1 and 2-propnol, ethyl acetate, acetone, chloroform and dichloromethane; also recorded: MeOH, EtOH, Me2CO,; also recorded: n-BuOH, 1-PrOH, 2-; also recorded: PrOH, CH2Cl2,; also recorded: EtOAc, CHCl3 | active | –
6 | water and n-hexane | – | 1 (≈ 1.43 µM) | > 100 | > 100 | > 100 | > 100 | > 100 | > 100 | 1 (≈ 1.43 µM) | 50 (≈ 71.5 µM) | 30 (≈ 42.9 µM) | 1 (≈ 1.43 µM) | 0.1 (≈ 0.143 µM) | COC1C(OCC2/C=C/C=C/C(=O)C(C)CC(C)C(OC3OC(C)CC(O)(C(C)O)C3O)C(C)/C=C/C(=O)OC2C)OC(C)C(O)C1OC (stereo not drawn) [P10b, aldgamycin P10b] | – | – | – | – | methanol, n-butanol, ethanol, 1 and 2-propnol, ethyl acetate, acetone, chloroform and dichloromethane | active | –
7 | n-hexane and toluene | CH2Cl2, CHCl3, EtOAc, and 2-PrOH | 5 (≈ 9.42 µM) | > 100 | > 100 | > 100 | > 100 | > 100 | > 100 | 10 (≈ 18.8 µM) | 75 (≈ 141 µM) | 50 (≈ 94.2 µM) | 40 (≈ 75.4 µM) | 5 (≈ 9.42 µM) | COc1cccc2c1C(=O)c1c(O)c3c(c(O)c1C2=O)CC(C)(O)CC3OC1OC(C)C(O)C(OC)C1O (stereo not drawn) [P11, mutactimycin C] | – | – | – | – | water, methanol, n-butanol, ethanol, 1-propanol and acetone; also recorded: MeOH, Me2CO, H20, n-; also recorded: BuOH, EtOH, 1-PrOH | active | –
